Measured values reported in patent publication US20120172302A1, “COMPOSITION FOR THE TREATMENT OF BENIGN PROSTATE HYPERPLASIA” (priority 2009, published 2012).
Square brackets hold non-standard residues; d marks the D form. Peptide text beside a SMILES is read from it. * marks the point of attachment. dPhe(4-NHCONH2) = NC(=O)Nc1ccc(C[C@@H](N)C(=O)O)cc1; Dihydroorotyl(S) = O=C1C[C@@H](C(=O)*)NC(=O)N1; dPhe(4-Cl) = N[C@H](Cc1ccc(Cl)cc1)C(=O)O; Phe(4-NH2) = Nc1ccc(C[C@H](N)C(=O)O)cc1; d2Nal = N[C@H](Cc1ccc2ccccc2c1)C(=O)O; Lys(iPr) = CC(C)NCCCC[C@H](N)C(=O)O; d3Pal = N[C@H](Cc1cccnc1)C(=O)O

Columns and labels:
Assay type in all cases: in vivo, men
[1] = test system: patients with BPH; test: IPSS global quality of life (QoL) question, clinical trial; conditions: for Percentage of patients feeling delighted, pleased, or mostly satisfied (IPSS Global QoL scores 0-2) / Percentage of patients feeling unhappy or terrible (IPSS Global QoL scores 5 and 6): combined group
Experimental: For each patient, the following parameters were measured or assessed (using the methods discussed below), at time points of screening (e.g. −7 days) day 0 (“baseline”), day 14, day 28 and day 42:
(§1) After the initial 6-week treatment period of the exploratory study had been completed, a 12-month follow-up period looking at long-term efficacy commenced. Interim data of the main efficacy variables (IPSS, IPSS Global QoL, prostate volume, urinary flow, and post-void residual volume—measured as set out below) after 6 months' follow-up are also presented herein Table 1, 2, 3 FIG. 1b), together with some IPSS data at 9 and 12 months (FIG. 1b).
Included in the IPSS is one item to evaluate QoL (IPSS-global QoL). The Global QoL Question was developed alongside the IPSS and was officially included as part of the IPSS in 1993 when the WHO formally recommended the IPSS for both symptom and QoL assessment. […] This question assesses the degree to which patients find their symptoms bothersome. Patients are asked about how they would feel if they were to spend the rest of their lives with their prostate symptoms just as they are now. The choices for answering this quality of life question ranged from “delighted” (rating=0) to “terrible” (rating=6).

[2] = test system: patients with BPH; test: Prostate volume by transrectal ultrasound, clinical trial
Excerpt: (§2) 2] Efficacy Endpoints—the measured Peak Urinary Flow, Post-void Residual Volume, and Prostate Volume.
as §1
The prostate volume was measured by transrectal ultrasound with the patient in lateral position. The prostatic gland was sonicated from two directions perpendicular to one another resulting in three cursor positions set by the urologist. The volume was calculated automatically. The investigations were performed by urologists by methods known in the art.

[3] = test system: patients with BPH; test: Post-void residual volume by transabdominal ultrasound, clinical trial; conditions: for Mean post-void residual volume: all treatment groups
Experimental: as §2
The Post-void Residual Volume (PVR) was evaluated by transabdominal ultrasound. The urine bladder was sonicated from two directions perpendicular to one another resulting in three cursor positions set by the urologist. The volume was calculated automatically. The investigations were performed by urologists by methods known in the art.

[4] = Baseline of 6-month follow-up patients, 32 mg group, n=7
[5] = Baseline of 6-month follow-up patients, 64 mg group, n=4
[6] = Baseline of 6-month follow-up patients, 16+16 mg group, n=6
[7] = Baseline of 6-month follow-up patients, 32+32 mg group, n=7
[8] = Month 6 follow-up, 32 mg group, n=7
[9] = Month 6 follow-up, 64 mg group, n=4
[10] = Month 6 follow-up, 16+16 mg group, n=6
[11] = Month 6 follow-up, 32+32 mg group, n=7

## CC(=O)N[C@H](Cc1ccc2ccccc2c1)C(=O)N[C@H](Cc1ccc(Cl)cc1)C(=O)N[C@H](Cc1cccnc1)C(=O)N[C@@H](CO)C(=O)N[C@@H](Cc1ccc(NC(=O)[C@@H]2CC(=O)NC(=O)N2)cc1)C(=O)N[C@H](Cc1ccc(NC(N)=O)cc1)C(=O)N[C@@H](CC(C)C)C(=O)N[C@@H](CCCCNC(C)C)C(=O)N1CCC[C@H]1C(=O)N[C@H](C)C(N)=O [Degarelix, D-Alaninamide, N-acetyl-3-(2-naphthalenyl)-D-alanyl-4-chloro-D-phenylalanyl-3-(3-pyridinyl)-D-alanyl-L-seryl-4-[[[(4S)-hexahydro-2,6-dioxo-4-pyrimidinyl]carbonyl]amino]-L-phenylalanyl-4-[(aminocarbonyl)amino]-D-phenylalanyl-L leucyl-N6-(1-methylethyl)-L-lysyl-L-prolyl] (Ac-[d2Nal][dPhe(4-Cl)][d3Pal]S[Phe(4-NH2)](Dihydroorotyl(S))[dPhe(4-NHCONH2)]L[Lys(iPr)]P[dA]-NH2)
[1]; [4]
  Mean IPSS global QoL score: 2.8 (n = 7)
[1]; [5]
  Mean IPSS global QoL score: 4.6 (n = 4)
[1]; [6]
  Mean IPSS global QoL score: 4.5 (n = 6)
[1]; [7]
  Mean IPSS global QoL score: 4.3 (n = 7)
[1]; Baseline, 32 mg group, N=12
  Mean IPSS global QoL score: 3.8 (1.7)
[1]; Baseline, 64 mg group, N=13
  Mean IPSS global QoL score: 4.7 (1.4)
[1]; Baseline, 16+16 mg group, N=13
  Mean IPSS global QoL score: 4.2 (1.1)
[1]; Baseline, 32+32 mg group, N=12
  Mean IPSS global QoL score: 4.3 (1.3)
[1]; Day 42, 32 mg group
  IPSS global QoL mean change from baseline: −2.1 (3.0)
  Mean IPSS global QoL score: 1.8 (2.0)
[1]; Day 42, 64 mg group
  IPSS global QoL mean change from baseline: −2.2 (1.6)
  Mean IPSS global QoL score: 2.5 (1.3)
[1]; Day 42, 16+16 mg group
  IPSS global QoL mean change from baseline: −1.2 (1.4)
  Mean IPSS global QoL score: 2.9 (1.4)
[1]; Day 42, 32+32 mg group
  IPSS global QoL mean change from baseline: −2.4 (1.9)
  Mean IPSS global QoL score: 1.9 (1.6)
[1]; Day 42
  Percentage of patients feeling delighted, pleased, or mostly satisfied (IPSS Global QoL scores 0-2): 58%
  Percentage of patients feeling unhappy or terrible (IPSS Global QoL scores 5 and 6): 12%
[1]; [8]
  IPSS global QoL change from baseline: −1.4 (1.1)
  Mean IPSS global QoL score: 1.4 (1.5)
[1]; [9]
  IPSS global QoL change from baseline: −0.8 (1.7)
  Mean IPSS global QoL score: 3.8 (1.3)
[1]; [10]
  IPSS global QoL change from baseline: −0.3 (0.5)
  Mean IPSS global QoL score: 4.2 (1.5)
[1]; [11]
  IPSS global QoL change from baseline: −2.7 (2.1)
  Mean IPSS global QoL score: 1.6 (0.8)
[1]; baseline
  Percentage of patients feeling delighted, pleased, or mostly satisfied (IPSS Global QoL scores 0-2): 8%
  Percentage of patients feeling unhappy or terrible (IPSS Global QoL scores 5 and 6): 48%
[2]; [4]
  Mean (SD) Prostate Volume: 45.9 (n = 7) mL
[2]; [5]
  Mean (SD) Prostate Volume: 38.7 (n = 4) mL
[2]; [6]
  Mean (SD) Prostate Volume: 40.8 (n = 6) mL
[2]; [7]
  Mean (SD) Prostate Volume: 37.1 (n = 7) mL
[2]; Baseline, 32 mg group, N=12
  Mean (SD) Prostate Volume: 48.7 (21.0) mL
[2]; Baseline, 64 mg group, N=13
  Mean (SD) Prostate Volume: 38.9 (9.0) mL
[2]; Baseline, 16+16 mg group, N=13
  Mean (SD) Prostate Volume: 42.0 (12.1) mL
[2]; Baseline, 32+32 mg group, N=12
  Mean (SD) Prostate Volume: 38.1 (7.1) mL
[2]; Day 42, 32 mg group
  Prostate Volume Change from Baseline: −13.9 (14.7) mL
  Prostate Volume Percentage Change from Baseline: −25.1 (18.0) %
[2]; Day 42, 64 mg group
  Prostate Volume Change from Baseline: −8.2 (10.2) mL
  Prostate Volume Percentage Change from Baseline: −19.7 (23.2) %
[2]; Day 42, 16+16 mg group
  Prostate Volume Change from Baseline: −7.5 (7.7) mL
  Prostate Volume Percentage Change from Baseline: −17.0 (16.7) %
[2]; Day 42, 32+32 mg group
  Prostate Volume Change from Baseline: −9.4 (9.3) mL
  Prostate Volume Percentage Change from Baseline: −23.5 (20.9) %
[2]; [8]
  Prostate Volume Change from Baseline: −11.6 (5.1) mL
  Prostate Volume Percentage Change from Baseline: −25.6 (8.0) %
[2]; [9]
  Prostate Volume Change from Baseline: −9.7 (10.4) mL
  Prostate Volume Percentage Change from Baseline: −21.5 (20.6) %
[2]; [10]
  Prostate Volume Change from Baseline: −11.2 (4.4) mL
  Prostate Volume Percentage Change from Baseline: −27.8 (8.7) %
[2]; [11]
  Prostate Volume Change from Baseline: −10.6 (8.8) mL
  Prostate Volume Percentage Change from Baseline: −27.1 (17.3) %
[3]; Day 14
  Mean post-void residual volume: decreased
[3]; Day 42, all groups
  Number of patients with post-void residual volume decreased vs baseline: 33 patients
  Number of patients with post-void residual volume increased vs baseline: 17 patients
[3]; Day 42
  Mean post-void residual volume: lower than the baseline value
